Experimental data taken from patent US6921759B2, “Aza- and polyaza-naphthalenyl carboxamides useful as HIV integrase inhibitors” (Merck & Co., Inc., priority 2000, dated 2005).

Assay: Oral bioavailability of jet-milled v. unmilled Na salt
Type: in vivo
Settings: jet-milled crystals (mean particle size about 3 to 5 microns) compared with unmilled (about 20 to 25 microns); orally administered formulations
Description: The Na salt has been jet-milled to provide crystals with a mean particle size of about 3 to 5 microns (v. about 20 to 25 microns for unmilled material) for use in orally administered formulations.

In the case of `O=C(NCc1ccc(F)cc1)c1nc(N2CCCCS2(=O)=O)c2cccnc2c1[O-].[Na+]` [Na salt, Sodium salt of 5-(1,1-Dioxido-1,2-thiazinan-2-yl)-N-(4-fluorobenzyl)-8-hydroxy-1,6-naphthyridine-7-carboxamide], the oral bioavailability is reported as “improved oral bioavailability over the unmilled salt”.
